The target of this assay is T1, HIV-integrase (Human immunodeficiency virus type 1 group M subtype B, UniProt P12497).
T1 construct: Recombinant integrase (0.26 ng) was incubated with the beads
The assay can be described thus: HIV-Integrase Inhibition Activity (SPA bead strand-transfer assay). The settings on record: Table 1; read-out: Activity (HIV-integrase inhibition, IC50 class). Format: biochemical. The procedure:
HIV-Integrase Inhibition Activity. To evaluate in-vitro activity against HIV-integrase, 5 pmole of biotin labeled substrate DNA was bound to 100 μg of Streptavidin coated PVT SPA beads (Amersham Pharmacia Biotech). Recombinant integrase (0.26 ng) was incubated with the beads for 90 min at 37° C. Unbound enzyme was removed by washing the complex followed by addition of inhibitors and 0.1 fmol of P33 labeled target DNA. The reaction was stopped by adding EDTA to a final concentration of 10 mM. Samples were counted in TopCountNXT (Packard) and the CPM was used as a measure of integration. The reaction condition was as described in A. Engelman and R. Craigie, J. Virol 69, 5908-5911 (1995). The sequences of substrate and target DNA were described in Nucleic Acid Research 22, 1121-1122 (1994).

The structures appear in SMILES notation. pIC50: −log10 of the molar value.

A word on the pIC50: it is the negative decadic logarithm of the IC50, by convention in mol/L.

As for `Cc1ccc(CNC(=O)c2nc3n(c(=O)c2O)CCOC3(C)C)c(C)c1` [Example 37, Pyrimido[2,1-c][1,4]oxazine-2-carboxamide, N-[(2,4-dimethylphenyl)methyl]-4,6,7,9-tetrahydro-3-hydroxy-9,9-dimethyl-4-oxo-], the pIC50 was 7.00 to 8.70.

For the compound `Cc1cc(C)cc(CNC(=O)c2nc3n(c(=O)c2O)CCOC3(C)C)c1` [Example 38, Pyrimido[2,1-c][1,4]oxazine-2-carboxamide, N-[(3,5-dimethylphenyl)methyl]-4,6,7,9-tetrahydro-3-hydroxy-9,9-dimethyl-4-oxo-], the negative-log IC50 (pIC50) is 7.00 to 8.70.

On to `Cc1cc(F)ccc1CNC(=O)c1nc2n(c(=O)c1O)CCOC2(C)C` [Example 39, Pyrimido[2,1-c][1,4]oxazine-2-carboxamide, N-[(4-fluoro-2-methylphenyl)methyl]-4,6,7,9-tetrahydro-3-hydroxy-9,9-dimethyl-4-oxo-], for which the pIC50 was 7.00 to 8.70.

With `CC1(C)OCCn2c1nc(C(=O)NCc1ccc(F)c3ccccc13)c(O)c2=O` [Example 40, Pyrimido[2,1-c][1,4]oxazine-2-carboxamide, N-[(4-fluoro-1-naphthalenyl)methyl]-4,6,7,9-tetrahydro-3-hydroxy-9,9-dimethyl-4-oxo-], the negative logarithm of the IC50 (pIC50) was 7.00 to 8.70.

With `COc1cc(F)ccc1CNC(=O)c1nc2n(c(=O)c1O)CCOC2(C)C` [Example 41, Pyrimido[2,1-c][1,4]oxazine-2-carboxamide, N-[(4-fluoro-2-methoxyphenyl)methyl]-4,6,7,9-tetrahydro-3-hydroxy-9,9-dimethyl-4-oxo-], the pIC50 was 7.00 to 8.70.

Regarding `CCC1(CC)OCCn2c1nc(C(=O)NCc1ccc(F)cc1)c(O)c2=O` [Example 42, Pyrimido[2,1-c][1,4]oxazine-2-carboxamide, 9,9-diethyl-N-[(4-fluorophenyl)methyl]-4,6,7,9-tetrahydro-3-hydroxy-4-oxo-], the negative-log IC50 (pIC50) was 7.00 to 8.70.

`CCC1(CC)OCCn2c1nc(C(=O)NCc1ccc(F)c(C)c1)c(O)c2=O` [Example 43]: the pIC50 is 7.00 to 8.70.

In the case of `CC1(C)OCCCn2c1nc(C(=O)NCc1ccc(F)cc1)c(O)c2=O` [Example 44, 6H-Pyrimido[2,1-c][1,4]oxazepine-2-carboxamide, N-[(4-fluorophenyl)methyl]-4,7,8,10-tetrahydro-3-hydroxy-10,10-dimethyl-4-oxo-], the pIC50 is 7.00 to 8.70.

With `Cc1cc(CNC(=O)c2nc3n(c(=O)c2O)CCCOC3(C)C)ccc1F` [Example 45, 6H-Pyrimido[2,1-c][1,4]oxazepine-2-carboxamide, N-[(4-fluoro-3-methylphenyl)methyl]-4,7,8,10-tetrahydro-3-hydroxy-10,10-dimethyl-4-oxo-], the pIC50 is 7.00 to 8.70.

`CC1(C)OCCn2c1nc(C(=O)NCc1ccc(F)cc1OCC(=O)N1CCOCC1)c(O)c2=O` [Example 46, Pyrimido[2,1-c][1,4]oxazine-2-carboxamide, N-[[4-fluoro-2-[2-(4-morpholinyl)-2-oxoethoxy]phenyl]methyl]-4,6,7,9-tetrahydro-3-hydroxy-9,9-dimethyl-4-oxo-]: the pIC50 was 7.00 to 8.70.

As for `COC(=O)c1cc(F)ccc1CNC(=O)c1nc2n(c(=O)c1O)CCOC2(C)C` [Example 47, Benzoic acid, 5-fluoro-2-[[[(4,6,7,9-tetrahydro-3-hydroxy-9,9-dimethyl-4-oxopyrimido[2,1-c][1,4]oxazin-2-yl)carbonyl]amino]methyl]-, methyl ester], the pIC50 was 7.00 to 8.70.

On to `CC1(C)OCCn2c1nc(C(=O)NCc1ccc(F)cc1C(=O)O)c(O)c2=O` [Example 48, Benzoic acid, 5-fluoro-2-[[[(4,6,7,9-tetrahydro-3-hydroxy-9,9-dimethyl-4-oxopyrimido[2,1-c][1,4]oxazin-2-yl)carbonyl]amino]methyl]-], for which the negative-log IC50 (pIC50) was 7.00 to 8.70.

Regarding `CNC(=O)c1cc(F)ccc1CNC(=O)c1nc2n(c(=O)c1O)CCOC2(C)C` [Example 49, Pyrimido[2,1-c][1,4]oxazine-2-carboxamide, N-[[4-fluoro-2-[(methylamino)carbonyl]phenyl]methyl]-4,6,7,9-tetrahydro-3-hydroxy-9,9-dimethyl-4-oxo-], the pIC50 is 7.00 to 8.70.

As to `CC1(C)OCCn2c1nc(C(=O)NCc1ccc(F)cc1C(=O)NC1CC1)c(O)c2=O` [Example 50, Pyrimido[2,1-c][1,4]oxazine-2-carboxamide, N-[[2-[(cyclopropylamino)carbonyl]-4-fluorophenyl]methyl]-4,6,7,9-tetrahydro-3-hydroxy-9,9-dimethyl-4-oxo-], the pIC50 was 7.00 to 8.70.

Take `CC1(C)OCCn2c1nc(C(=O)NCc1ccc(F)cc1C(=O)NCCO)c(O)c2=O` [Example 51, Pyrimido[2,1-c][1,4]oxazine-2-carboxamide, N-[[4-fluoro-2-[[(2-hydroxyethyl)amino]carbonyl]phenyl]methyl]-4,6,7,9-tetrahydro-3-hydroxy-9,9-dimethyl-4-oxo-]: the pIC50 is 7.00 to 8.70.

As to `CC1(C)OCCn2c1nc(C(=O)NCc1ccc(F)cc1C(=O)N1CCOCC1)c(O)c2=O` [Example 52, Pyrimido[2,1-c][1,4]oxazine-2-carboxamide, N-[[4-fluoro-2-(4-morpholinylcarbonyl)phenyl]methyl]-4,6,7,9-tetrahydro-3-hydroxy-9,9-dimethyl-4-oxo-], the pIC50 is 7.00 to 8.70.

In the case of `CC1(C)OCCn2c1nc(C(=O)NCc1ccc(F)cc1-n1ccnc1)c(O)c2=O` [Example 53, Pyrimido[2,1-c][1,4]oxazine-2-carboxamide, N-[[4-fluoro-2-(1H-imidazol-1-yl)phenyl]methyl]-4,6,7,9-tetrahydro-3-hydroxy-9,9-dimethyl-4-oxo-], the pIC50 was 7.00 to 8.70.

Regarding `CC1(C)OCCn2c1nc(C(=O)NCc1cc(F)ccc1-n1cncn1)c(O)c2=O` [Example 54, Pyrimido[2,1-c][1,4]oxazine-2-carboxamide, N-[[5-fluoro-2-(1H-1,2,4-triazol-1-yl)phenyl]methyl]-4,6,7,9-tetrahydro-3-hydroxy-9,9-dimethyl-4-oxo-e], the negative-log IC50 (pIC50) was 7.00 to 8.70.

As to `CC1(C)OCCn2c1nc(C(=O)NCc1cccc(F)c1N1CCCCS1(=O)=O)c(O)c2=O` [Example 55, Pyrimido[2,1-c][1,4]oxazine-2-carboxamide, N-[[3-fluoro-2-(tetrahydro-1,1-dioxido-2H-1,2-thiazin-2-yl)phenyl]methyl]-4,6,7,9-tetrahydro-3-hydroxy-9,9-dimethyl-4-oxo-], the pIC50 is 7.00 to 8.70.

With `CC1(C)OCCn2c1nc(C(=O)NCc1cccc(F)c1-n1cncn1)c(O)c2=O` [Example 56, Pyrimido[2,1-c][1,4]oxazine-2-carboxamide, N-[[3-fluoro-2-(1H-1,2,4-triazol-1-yl)phenyl]methyl]-4,6,7,9-tetrahydro-3-hydroxy-9,9-dimethyl-4-oxo-], the pIC50 was 7.00 to 8.70.

`CC1(C)OCCn2c1nc(C(=O)NCc1ccc(F)cc1-n1nccn1)c(O)c2=O` [Example 57, Pyrimido[2,1-c][1,4]oxazine-2-carboxamide, N-[[4-fluoro-2-(2H-1,2,3-triazol-2-yl)phenyl]methyl]-4,6,7,9-tetrahydro-3-hydroxy-9,9-dimethyl-4-oxo-]: the pIC50 was 7.00 to 8.70.

On to `CC1(C)OCCn2c1nc(C(=O)NCc1ccc(-n3nccn3)cc1F)c(O)c2=O` [Example 58, Pyrimido[2,1-c][1,4]oxazine-2-carboxamide, N-[[2-fluoro-4-(2H-1,2,3-triazol-2-yl)phenyl]methyl]-4,6,7,9-tetrahydro-3-hydroxy-9,9-dimethyl-4-oxo-], for which the pIC50 was 7.00 to 8.70.

Consider `CC1(C)OCCn2c1nc(C(=O)NCc1ccc(F)cc1Br)c(O)c2=O` [Example 59, Pyrimido[2,1-c][1,4]oxazine-2-carboxamide, N-[(2-bromo-4-fluorophenyl)methyl]-4,6,7,9-tetrahydro-3-hydroxy-9,9-dimethyl-4-oxo-], for which the pIC50 was 7.00 to 8.70.

Consider `COC(=O)c1ncn(-c2cc(F)ccc2CNC(=O)c2nc3n(c(=O)c2O)CCOC3(C)C)n1` [Example 60, 1H-1,2,4-Triazole-3-carboxylic acid, 1-[5-fluoro-2-[[[(4,6,7,9-tetrahydro-3-hydroxy-9,9-dimethyl-4-oxopyrimido[2,1-c][1,4]oxazin-2-yl)carbonyl]amino]methyl]phenyl], methyl este], for which the pIC50 was 7.00 to 8.70.

With `CC1(C)OCCn2c1nc(C(=O)NCc1ccc(F)cc1-n1cnc(C(=O)O)n1)c(O)c2=O` [Example 61, 1H-1,2,4-Triazole-3-carboxylic acid, 1-[5-fluoro-2-[[[(4,6,7,9-tetrahydro-3-hydroxy-9,9-dimethyl-4-oxopyrimido[2,1-c][1,4]oxazin-2-yl)carbonyl]amino]methyl]phenyl]-], the pIC50 is 7.00 to 8.70.

Take `CC1(C)OCCn2c1nc(C(=O)NCc1ccc(F)cc1-n1cnc(C(=O)N3CCOCC3)n1)c(O)c2=O` [Example 62, Pyrimido[2,1-c][1,4]oxazine-2-carboxamide, N-[[4-fluoro-2-[3-(4-morpholinylcarbonyl)-1H-1,2,4-triazol-1-yl]phenyl]methyl]-4,6,7,9-tetrahydro-3-hydroxy-9,9-dimethyl-4-oxo-]: the pIC50 was 7.00 to 8.70.

Turning to `CN(C)C(=O)c1ncn(-c2cc(F)ccc2CNC(=O)c2nc3n(c(=O)c2O)CCOC3(C)C)n1` [Example 63, Pyrimido[2,1-c][1,4]oxazine-2-carboxamide, N-[[2-[3-[(dimethylamino)carbonyl]-1H-1,2,4-triazol-1-yl]-4-fluorophenyl]methyl]-4,6,7,9-tetrahydro-3-hydroxy-9,9-dimethyl-4-oxo-], the pIC50 is 7.00 to 8.70.

These data come from patent US7491819B1 (priority 2004, dated 2009).
